In US11952363B2, “Piperazine compounds for the treatment of autoimmune disease” (Hoffmann-La Roche Inc., priority 2018, dated 2024):

What was measured:
[1] = Human microsomal stability assay; type: in vitro ADME; conditions: human liver microsomes 0.5 mg/mL, 1 μM test compound, 37° C., pH 7.4
Protocol: Human liver microsomes (Cat.NO.: 452117, Corning, USA) were preincubated with test compound for 10 minutes at 37° C. in 100 mM potassium phosphate buffer, pH 7.4. The reactions were initiated by adding NADPH regenerating system. The final incubation mixtures contained 1 μM test compound, 0.5 mg/mL liver microsomal protein, 1 mM MgCl2, 1 mM NADP, 1 unit/mL isocitric dehydrogenase and 6 mM isocitric acid in 100 mM potassium phosphate buffer, pH 7.4. After incubation times of 0, 3, 6, 9, 15 and 30 minutes at 37° C., 300 μL of cold ACN (including internal standard) was added to 100 μL incubation mixture to terminate the reaction. Following precipitation and centrifugation, 100 uL supernatant will be taken out and added 300 uL water. The amount of compound remaining in the samples was determined by LC-MS/MS. Controls of no NADPH regenerating system at zero and 30 minutes were also prepared and analyzed.

human TLR9 = molecular target: T1, human TLR9 (Homo sapiens, UniProt Q9NR96); assay: HEK293-Blue-hTLR-9 cells assay (SEAP reporter, ODN2006 stimulation); type: cell-based; conditions: HEK293-Blue-hTLR9 cells, ODN2006 ligand, 20 hrs incubation; read-out: HEK/hTLR9 IC50
T1 sequence (Q9NR96 26-1032): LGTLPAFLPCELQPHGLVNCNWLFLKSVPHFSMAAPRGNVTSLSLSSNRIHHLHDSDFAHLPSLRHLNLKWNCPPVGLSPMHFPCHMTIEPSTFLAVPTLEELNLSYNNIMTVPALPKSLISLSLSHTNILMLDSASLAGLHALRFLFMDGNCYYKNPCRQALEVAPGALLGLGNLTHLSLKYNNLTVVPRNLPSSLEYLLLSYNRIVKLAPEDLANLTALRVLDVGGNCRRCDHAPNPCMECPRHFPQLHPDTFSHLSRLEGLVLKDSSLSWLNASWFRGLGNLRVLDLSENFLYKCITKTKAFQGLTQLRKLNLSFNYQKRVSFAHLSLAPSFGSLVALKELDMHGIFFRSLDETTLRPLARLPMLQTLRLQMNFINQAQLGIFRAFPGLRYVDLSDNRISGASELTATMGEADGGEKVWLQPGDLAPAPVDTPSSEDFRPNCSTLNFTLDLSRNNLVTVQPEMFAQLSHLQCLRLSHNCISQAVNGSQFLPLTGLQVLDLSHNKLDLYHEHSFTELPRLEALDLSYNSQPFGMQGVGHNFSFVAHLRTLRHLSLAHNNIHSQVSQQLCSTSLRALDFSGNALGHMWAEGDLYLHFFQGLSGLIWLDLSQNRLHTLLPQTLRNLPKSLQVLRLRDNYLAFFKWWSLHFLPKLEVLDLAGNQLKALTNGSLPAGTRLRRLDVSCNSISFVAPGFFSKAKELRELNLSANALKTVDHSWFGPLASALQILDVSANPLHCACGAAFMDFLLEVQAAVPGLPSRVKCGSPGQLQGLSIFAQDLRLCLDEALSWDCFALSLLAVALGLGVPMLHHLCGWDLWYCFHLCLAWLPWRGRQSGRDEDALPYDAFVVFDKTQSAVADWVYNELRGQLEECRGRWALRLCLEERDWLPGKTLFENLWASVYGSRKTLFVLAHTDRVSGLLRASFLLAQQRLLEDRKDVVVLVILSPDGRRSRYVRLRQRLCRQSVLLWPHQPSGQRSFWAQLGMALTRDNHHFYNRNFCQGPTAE
Protocol: The following tests were carried out in order to determine the activity of the compounds of formula (I) in HEK293-Blue-hTLR-7/8/9 cells assay.
A stable HEK293-Blue-hTLR-9 cell line was purchased from InvivoGen (Cat.#: hkb-htlr9, San Diego, California, USA). These cells were originally designed for studying the stimulation of human TLR9 by monitoring the activation of NF-κB. A SEAP (secreted embryonic alkaline phosphatase) reporter gene was placed under the control of the IFN-β minimal promoter fused to five NF-κB and. AP-1-binding sites. The SEAP was induced by activating NF-κB and AP-1 via stimulating HEK-Blue hTLR9 cells with TLR9 ligands. Therefore the reporter expression was declined by TLR9 antagonist under the stimulation of a ligand, such as ODN2006 (Cat.#: tlr1-2006-1, Invivogen, San Diego, California, USA), for incubation of 20 his. The cell culture supernatant SEAP reporter activity was determined using QUANTI-Blue™ kit (Cat.#: rep-qb1, Invivogen, San Diego, California, USA) at a wavelength of 640 nm, a detection medium that turns purple or blue in the presence of alkaline phosphatase.
HEK293-Blue-hTLR9 cells were incubated at a density of 250,000-450,000 cells/mL in a volume of 170 μL in a 96-well plate in Dulbecco's Modified Eagle's medium (DMEM) containing 4.5 g/L glucose, 50 U/mL penicillin, […], […], 2 mM L-glutamine, 10% (v/v) heat-inactivated fetal bovine serum with addition of 20 μL test compound in a serial dilution in the presence of final DMSO at 1% and 10 p L of 20uM ODN2006 in above DMEM, perform incubation under 37° C. in a CO2 incubator for 20 hrs. Then 20 μL of the supernatant from each well was incubated with 180 μL Quanti-blue substrate solution at 37° C. for 2 h and the absorbance was read at 620˜655 nm using a spectrophotometer. The signaling pathway that TLR9 activation leads to downstream NF-κB activation has been widely accepted, and therefore similar reporter assay was modified for evaluating TLR9 antagonist.

SMILES	Clearance of Human microsome [1]	IC50 (human TLR9)
C[C@@H]1CN(c2ccc(C#N)c3ncccc23)C[C@H](C)N1Cc1ccc(N2CCNCC2)cc1 [Example 1, 5-[(3R,5S)-3,5-Dimethyl-4-[(4-piperazin-1-ylphenyl)methyl]piperazin-1-yl]quinoline-8-carbonitrile]	11.2 mL/min/kg	39 nM
C[C@@H]1CN(c2ccc(C#N)c3ncccc23)C[C@@H](C)N1Cc1ccc(N2CCNCC2)cc1 [Example 2]	8.0 mL/min/kg	65 nM
C[C@@H]1CN(c2ccc(C#N)c3ncccc23)C[C@H](C)N1Cc1ccc(N2CCNCC2)nc1 [Example 3, 5-[(3R,5S)-3,5-Dimethyl-4-[(6-piperazin-1-yl-3-pyridyl)methyl]piperazin-1-yl]quinoline-8-carbonitrile]	11.6 mL/min/kg	93 nM
C[C@@H]1CN(c2ccc(C#N)c3ncccc23)C[C@H](C)N1Cc1ncc(N2CCNCC2)cn1 [Example 4, 5-[(3S,5R)-3,5-Dimethyl-4-[(5-piperazin-1-ylpyrimidin-2-yl)methyl]piperazin-1-yl]quinoline-8-carbonitrile]	10.4 mL/min/kg	137 nM
C[C@@H]1CN(c2ccc(C#N)c3ncccc23)C[C@H](C)N1Cc1ccc(N2CCNCC2)cn1 [Example 5, 5-[(3S,5R)-3,5-Dimethyl-4-[(5-piperazin-1-yl-2-pyridyl)methyl]piperazin-1-yl]quinoline-8-carbonitrile]	–	84 nM
C[C@@H]1CN(c2ccc(C#N)c3ncccc23)C[C@H](C)N1Cc1ncc(N2CCN(C(=O)CN(C)C)CC2)cn1 [Example 6, 5-[(3S,5R)-4-[[5-[4-[2-(Dimethylamino)acetyl]piperazin-1-yl]pyrimidin-2-yl]methyl]-3,5-dimethyl-piperazin-1-yl]quinoline-8-carbonitrile]	10.5 mL/min/kg	139 nM
C[C@@H]1CN(c2ccc(C#N)c3ncccc23)C[C@H](C)N1Cc1ccc(N2CCN(C)CC2)cn1 [Example 7, 5-[(3S,5R)-3,5-dimethyl-4-[[5-(4-methylpiperazin-1-yl)-2-pyridyl]methyl]piperazin-1-yl]quinoline-8-carbonitrile]	–	120 nM
C[C@@H]1CN(c2ccc(C#N)c3ncccc23)C[C@H](C)N1Cc1ccc(N2CC3CNCC(C2)O3)cn1 [Example 8, 5-[(3S,5R)-3,5-Dimethyl-4-[[5-(9-oxa-3,7-diazabicyclo[3.3.1]nonan-3-yl)-2-pyridyl]methyl]piperazin-1-yl]quinoline-8-carbonitrile]	12.4 mL/min/kg	73 nM
C[C@@H]1CN(c2ccc(C#N)c3ncccc23)C[C@H](C)N1Cc1ccc(N[C@@H]2CNC[C@@H]2F)cn1 [Example 9, 5-[(3R,5S)-3,5-Dimethyl-4-[[5-[[(3R,4S)-4-fluoropyrrolidin-3-yl]amino]-2-pyridyl]methyl]piperazin-1-yl]quinoline-8-carbonitrile]	12.8 mL/min/kg	47 nM
C[C@@H]1CN(c2ccc(C#N)c3ncccc23)C[C@H](C)N1Cc1ccc(N2CCN(C(=O)C3CCCN3)CC2)cn1 (stereo partly drawn) [Example 10, 5-[(3R,5S)-3,5-Dimethyl-4-[[5-[4-(pyrrolidine-2-carbonyl)piperazin-1-yl]-2-pyridyl]methyl]piperazin-1-yl]quinoline-8-carbonitrile]	–	41 nM
C[C@@H]1CN(c2ccc(C#N)c3ncccc23)C[C@H](C)N1Cc1ccc(N2CCN(C(=O)CN(C)C)CC2)cn1 [Example 11, 5-[(3S,5R)-4-[[5-[4-[2-(Dimethylamino)acetyl]piperazin-1-yl]-2-pyridyl]methyl]-3,5-dimethyl-piperazin-1-yl]quinoline-8-carbonitrile]	–	96 nM
C[C@@H]1CN(c2ccc(C#N)c3ncccc23)C[C@H](C)N1Cc1ccc(N2CCNCC2CO)cc1 (stereo partly drawn) [Example 12, 5-[(3R,5S)-4-[[4-[2-(Hydroxymethyl)piperazin-1-yl]phenyl]methyl]-3,5-dimethyl-piperazin-1-yl]quinoline-8-carbonitrile]	10.1 mL/min/kg	60 nM
C[C@@H]1CN(c2ccc(C#N)c3ncccc23)C[C@H](C)N1CC(=O)N1CCc2nc(N3CCNCC3)ccc2C1 [Example 13, 5-[(3R,5S)-3,5-Dimethyl-4-[2-oxo-2-(2-piperazin-1-yl-7,8-dihydro-5H-1,6-naphthyridin-6-yl)ethyl]piperazin-1-yl]quinoline-8-carbonitrile]	–	132 nM
C[C@@H]1CN(c2ccc(C#N)c3ncccc23)C[C@H](C)N1CC(=O)N1CCc2cc(N3CCNCC3)ccc2C1 [Example 14, 5-[(3R,5S)-3,5-Dimethyl-4-[2-oxo-2-(6-piperazin-1-yl-3,4-dihyrdo-1H-isoquinolin-2-yl)ethyl]piperazin-1-yl]quinoline-8-carbonitrile]	12.9 mL/min/kg	116 nM
C[C@@H]1CN(c2ccc(C#N)c3ncccc23)C[C@H](C)N1CC(=O)N1CCc2ccc(N3CCNCC3)cc2C1 [Example 15, 5-[(3R,5S)-3,5-dimethyl-4-[2-pxp-2-(7-piperazin-1-yl-3,4-dihydro-1H-isoquinolin-2-yl)ethyl]piperazin-1-yl]quinoline-8-carbonitrile]	–	94 nM
C[C@@H]1CN(c2ccc(C#N)c3ncccc23)C[C@H](C)N1CC(=O)N1Cc2ccc(N3CCNCC3)cc2C1 [Example 16, 5-[(3R,5S)-3,5-Dimethyl-4-[2-oxo-2-(5-piperazin-1-ylisoindolin-2-yl)ethyl]piperazin-1-yl]quinoline-8-carbonitrile]	9.4 mL/min/kg	75 nM
CC1CN(c2ccc(C#N)c3ncccc23)CCN1CC(=O)Nc1ccc(N2CCNCC2)cc1 (centres unmarked) [Example 17, 2-[4-(8-Cyano-5-quinolyl)-2-methyl-piperazin-1-yl]-N-(4-piperazin-1-ylpheny)acetamide]	6.9 mL/min/kg	103 nM
CC1CN(c2ccc(C#N)c3ncccc23)CCN1CC(=O)Nc1ccc2c(c1)CCNC2 (centres unmarked) [Example 18, 2-[4-(8-Cyano-5-quinolyl)-2-methyl-piperazin-1yl]-N-(1,2,3,4-tetrahydroisoquinolin-6-yl)acetamide]	6.3 mL/min/kg	119 nM
CC1CN(c2ccc(C#N)c3ncccc23)CCN1CC(=O)N1CCC(C2CCN(C)CC2)CC1 (centres unmarked) [Example 19, 5-[3-methyl-4-[2-[4-(1-methyl-4-piperidyl)-1-piperidyl]-2-oxo-ethyl]piperazin-1-yl]quinoline-8-carbonitrile]	6.7 mL/min/kg	116 nM
